Results published in PMC11446282.
No end group written: not given here.

Assays:
B55α interactors = assay: MS analysis of B55α WT, V228A, I284A, S287A and D340A immunopurifications; format: binding, human; settings: log2 ratio of interactor abundance, 4 replicates each, normalised to bait B55α; for log2_ratio_D340_WT: B55α D340A vs WT immunopurification; for log2_ratio I284_WT: B55α I284A vs WT immunopurification; for log2_ratio S287_WT: B55α S287A vs WT immunopurification; for log2_ratio V228_WT: B55α V228A vs WT immunopurification
Protocol: Standard cloning techniques were used throughout. Point mutations were introduced by whole plasmid polymerase chain reaction (PCR). All constructs were fully sequenced. Synthetic DNA was purchased from GeneArt, Life Technologies and cloned into pcDNA5/FRT/TO (Invitrogen) expression vector containing YFP, resulting in the indicated YFP fusion proteins. These constructs were transiently transfected into HeLa cells 24 hours before harvesting cells. Cells were lysed in lysis buffer [50 mM tris-HCl (pH 7.5), 50 mM NaCl, 1 mM EDTA, 1 mM […], and 0.1% NP-40]. Complexes were immunoprecipitated at 4°C in lysis buffer with green fluorescent protein (GFP)–Trap (ChromoTek) and washed in lysis buffer. Precipitated protein complexes were washed three times in lysis buffer, eluted in 2× SDS sample buffer, and subjected to Western blotting or MS as indicated.
Pull-downs were analyzed on a Q-Exactive Plus quadrupole or Fusion Orbitrap Lumos mass spectrometer (Thermo Fisher Scientific) equipped with Easy-nLC 1000 or […] (Thermo Fisher Scientific) and nanospray source (Thermo Fisher Scientific).
Static modifications included carbamidomethylcysteine, and variable modifications included oxidized methionine and STY phosphorylation. Searches were filtered using orthogonal measures including mass measurement accuracy (±3 parts per million), Xcorr for charges from +2 to +4, and dCn targeting a <1% false discovery rate at the peptide level. Quantification of LC-MS/MS spectra was performed using MassChroQ ([57]) and the iBAQ method ([58]). All data were analyzed using R 4.3.0. Missing values were imputed from a normal distribution. […] In each dataset, the abundance of the protein of interest was normalized to be equal across all samples. Statistical analyses were done using a two-tailed Student’s t test.

PP2A-B55α = assay: Affinity purification of YFP-tagged designed peptides from HeLa cells, binding to PP2A-B55α by Western blot; set-up: species or system human; settings: experimental binding of YFP-tagged designed peptide to PP2A-B55α
B55α = target: T1, B55α (Homo sapiens, UniProt P63151); assay: Surface plasmon resonance with captured Twin-Strep B55α; format: binding; settings: same SPR approach as for B55i; fig. S15
T1 construct: His; made in house; host or cells: HEK293 cells
T1 sequence (P63151 1-447): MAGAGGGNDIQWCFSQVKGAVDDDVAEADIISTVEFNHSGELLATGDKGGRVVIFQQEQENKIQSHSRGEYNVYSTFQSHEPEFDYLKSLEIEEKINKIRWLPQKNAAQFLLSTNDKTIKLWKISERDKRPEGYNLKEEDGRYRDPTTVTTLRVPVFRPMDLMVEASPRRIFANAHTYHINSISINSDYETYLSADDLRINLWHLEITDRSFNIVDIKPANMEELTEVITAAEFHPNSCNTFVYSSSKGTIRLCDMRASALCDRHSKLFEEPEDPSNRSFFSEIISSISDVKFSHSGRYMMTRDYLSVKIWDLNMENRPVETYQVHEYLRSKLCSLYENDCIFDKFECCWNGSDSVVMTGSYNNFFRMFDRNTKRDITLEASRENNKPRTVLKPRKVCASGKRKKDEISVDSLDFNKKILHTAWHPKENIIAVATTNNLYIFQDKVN

Row | Substance | log2_ratio_D340_WT (B55α interactors) | log2_ratio I284_WT (B55α interactors) | log2_ratio S287_WT (B55α interactors) | log2_ratio V228_WT (B55α interactors) | binding to PP2A-B55α (Western blot) (PP2A-B55α) | binding to B55α, affinity range (B55α)
1 | BAG3_HUMAN | 0.51 | 0.79 | 1.17 | 0.37 | – | –
2 | DNJA2_HUMAN | 1.00 | 0.64 | 1.02 | 0.87 | – | –
3 | DNJB6_HUMAN | -0.39 | 0.42 | 1.10 | 2.13 | – | –
4 | EEKLRILEKMEEKLKDKSLSLEKKVLLKNAKKSL | – | – | – | – | 28 | –
5 | EKILEIAKKKIEELKKKPGGLDLEKYLLYKKLIEKV | – | – | – | – | 15 | –
6 | EKRKKLKEKALEKLKDPNRDLEEKVLLRNWLKSL | – | – | – | – | 14 | –
7 | ELIKRLYEKAKEKLKDESRSLEKKVLLRNWIKSL | – | – | – | – | 62.5 | –
8 | ELPLEEVERLLKLAEEKLKDESLSLTKKVLLRNL | – | – | – | – | 55.5 | –
9 | HAX1_HUMAN | -0.10 | -0.26 | 0.0269 | -0.50 | – | –
10 | HS90A_HUMAN | -0.17 | -0.24 | 0.22 | -0.28 | – | –
11 | HS90B_HUMAN | -0.13 | -0.16 | 0.29 | -0.12 | – | –
12 | HSPB1_HUMAN | -1.28 | -0.92 | -0.85 | -0.80 | – | –
13 | LLELAKKKYEEELKKKEPDLTKLVLLKNVIKKLK | – | – | – | – | 42 | –
14 | MQPINKARALYRISHLKLSNSKREQDEQVLLRLHMIAFLNIVNHT | – | – | – | – | 0 | –
15 | PVKLQLLKKAKEKLADENLSLEKKVLLKNLIKSW | – | – | – | – | 68 | –
16 | QIIQRSFSSPENFQRQAVMNSALRQMSYGGW [RBM7 129–158 WT] | – | – | – | – | – | low micromolar
17 | QRLMTLSVWKMYHSRMQRGGEDAWLSLMLSLAMRLG | – | – | – | – | 0 | –
18 | RLPINLERALYRLSHLKLSNSKRELYEQVALKLAMLGFLNLVNHT | – | – | – | – | 11.5 | –
19 | SLIWQSNMDKALVKLQLCHMLEQPDLTKSVMILAGVLAAQEFM | – | – | – | – | 0 | –
